The values below come from patent publication US4220795A, “Cyclobutyl substituted derivatives of prostaglandin analogs” (Miles Laboratories, Inc., priority 1978, dated 1980).

Values after ≈ are worked out from the molar mass of the structure shown.

For one experiment, the system named is femoral blood flow. Put plainly: Effects on Femoral Blood Flow in the Dog (Test C). Type of experiment: in vivo, dog (mongrel). The conditions noted are these: anesthetized dog, intraarterial 0.001 to 10 mcg. The protocol: C. Evaluation of the Effects of Prostaglandin Analogs III on the Femoral Blood Flow in the Dog
The peripheral vasodilator or constrictor effects of test compounds were determined in mongrel dogs of either sex, weighing between 10 and 20 kg anesthestized intravenously with 35 mg/kg of sodium pentobarbital. An external iliac artery was dissected immediately above the femoral arch for a length of approximately 5 cm and a previously calibrated, non-connulating electromagnetic flowmeter sensor with a lumen between 2.5 and 3.5 mm was placed snugly around the vessel. Cannulas were placed in a branch of the artery arising distally to the location of the flowmeter sensor for intraarterial drug administrations, in the contralateral femoral artery for systemic blood pressure recordings and in the trachea for artificial respiration with room air. Femoral blood flow and systemic blood pressure were continuously recorded with an electromagnetic flowmeter and pressure transducer, respectively.
After an adequate control period, test compounds were injected intraarterially at one log-spaced doses ranging from 0.001 to 10 mcg., in a volume of 0.5 ml and at 5 to 10 min intervals. Maximum changes in bloodflow, as well as any variations in blood pressure, were tabulated for each dose in absolute values (ml/min and mmHg). The calculations were made taking as control values those existing immediately before administration of each dose. The direction of the observed change (+ for increase and - for decrease) was also noted. The dose changing bloodflow by 100 ml/min (ED100 ml/min) was calculated graphically and was used for scoring activity as follows: […]

Another experiment relates to blood pressure. Put plainly: Effects on Blood Pressure and Heart Rate in the Anesthetized Cat (Test D). It is filed as in vivo. The conditions noted are these: Felis catus, iv, i.v. 0.01 to 10.0 mcg/kg, scored on hypotension, read-out: Activity value, Test D: Normal Feline Blood Pressure and Heart Rate (ED50 mmHg). On the procedure: D. Evaluation of the Effects of Prostaglandin Analogs III on Blood Pressure and Heart Rate in the Anesthetized Cat
The acute effects of test compounds on blood pressure and heart rate were determined in cats of either sex anesthetized with a mixture of pentobarbital sodium (35 mg/kg, i.v.) and barbital sodium (100 mg/kg, i.v.). Cannulas were placed in the trachea to allow adequate spontaneous ventilation, in a femoral artery for blood pressure recording with a strain gage transducer, and in a saphenous vein for drug administration. Heart rate was recorded by means of a cardiotachometer driven by the R wave of the electrocardiogram. After a period of 10 min of stable recordings of blood pressure and heart rate, the test compound was administered intravenously at doses increasing from 0.01 to 10.0 mcg/kg, spaced one log and injected at 10 min intervals. All doses were injected in a volume of 0.1 ml/kg. Modifications of blood pressure and heart rate induced by the test compound were expressed both in absolute units (mmHg and beats/min) and as percent of values recorded immediately before administration of each dose. Biphasic responses were tabulated in the order in which they occur. The direction of the observed changes was also noted (+ for increase and - for decrease).
Activity of compounds in this test was judged only on the basis of the degree of hypotension observed. Thus, the ED50 mmHg (dose decreasing blood pressure by 50 mmHg) was calculated graphically and the compound scored according to the following scale: […]

Experiment [1] relates to blood pressure (hypertensive rat). Put plainly: Effects on Blood Pressure in the Hypertensive Rat (Test E). The conditions noted are these: 1 mg/kg intraperitoneal, 2, 4, 6 and 8 hr. Also noted: key: 0: Not significant at any time interval; 1: Significant at one time interval; 2: Significant at two time intervals; 3: Significant at three time intervals; 4: Significant at all four intervals. It is filed as in vivo. On the procedure: E. Evaluation of the Effects of Prostaglandin Analogs III on Blood Pressure in the Hypertensive Rat
The acute antihypertensive activity of test compounds is determined in rats made hypertensive by the procedure of Grollman (A. Proc. Soc. Exper. Biol. Med., 57:102, [1944]). Female rats weighing between 60 and 100 g are anesthetized with ether, the right kidney approached through a flank retroperitoneal incision, decapsulated and tied with a figure-of-eight ligature. The animals are left to recover and two weeks later are again anesthetized and the contralateral kidney removed. Four weeks after the second operation the rats are subjected to indirect blood pressure measurements and those showing systolic pressure values greater than 160 mmHg are selected for drug testing.
Blood pressure is measured in the tail with an inflatable occluding cuff placed at the base of the extremity and a pulse detector located distally. The cuff is inflated to approximately 300 mmHg and is slowly deflated until pulsations appear, indicating the level of systolic pressure; diastolic pressure is not recorded by this procedure. All measurements are carried out in unanesthetized, unsedated animals maintained in a warm environment during the recording procedure and for at least 6 hr before. In all cases, three pressure readings are obtained in succession and mean values are calculated thereof.
Experiments are carried out in groups of five hypertensive rats in which systolic pressure is determined immediately before and 2, 4, 6 and 8 hr after the intraperitoneal administration of the test compound at a dose of 1 mg/kg. Drugs are diluted from stock solutions with phosphate buffer (Lee et al., Prostaglandins 3:29 [1973]), so as to inject this quantity in a volume of 1 ml/kg. Changes from control blood pressure values are calculated for each interval both in mmHg and in per-cent, and evaluated for significance by means of Wilcoxon's signed rank test (Wilcoxon and Wilcox, Some rapid approximate statistical procedures, Lederle Laboratories, Pearl River [1964]).

The test system of the next experiment is rat uterus. Put plainly: Effects on the Rat Uterus (Test F). Conditions: rat uterus segments, 0.001 to 10.0 mcg/ml, 29° C.; read-out: Activity value, Test F: Effects on Rat Uterus (ED50, response of 50% that of carbachol). The protocol: F. Evaluation of the Effects of Prostaglandin Analogs III on the Rat Uterus
The uterine stimulant effect of test compounds is determined in segments of uterus obtained from rats (140-160 g) pretreated subcutaneously with 1 mg/kg of diethylstibesterol 18 hr before the experiment. The tissues are placed in 10 ml chambers filled with de-Jalon solution at 29° C. and bubbled with 95% O2 and 5% CO2, and prepared for isometric recording with force displacement transducers. Preparations are stretched to an initial tension of 1 g and are left undisturbed for 30 min, after which two responses to 1 mcg/ml of carbachol added to the bath at a 10 min interval, are obtained (the value of the second response is recorded). Responses to increasing concentrations of the test compound (0.001 to 10.0 mcg/ml with one log intervals) are then recorded every 10 min. Preparations are washed four times after each response. All doses of drugs are administered in a 0.1 ml volume. Since it has been observed that the magnitude of the second response to carbachol, which is approximately 10% greater than the first, is close to the maximal response of the tissue, such value is taken as a measure of the sensititity of the particular segment. Responses to each concentration of the test compound are expressed in terms of percentage of the second response to carbachol and the ED50 (dose producing a response of 50% that of carbachol) is calculated graphically. Activity is scored according to the following scale: […]

In the case of `CCC1CC([C@H](O)/C=C/[C@H]2[C@H](O)CC(=O)[C@@H]2CCCCCCO)C1` (relative stereo) [TR-4676, (±)16,18-Methano-1-nor-2,11α,15S-trihydroxyprost-13E-en-9-one], in the experiment with femoral blood flow, the “Activity value, Test C: Increase in Canidae Femoral Blood Flow (ED100 ml/min)” value (“Activity value, Test C: Increase” for short) is recorded as 0 (>10.0). For the same compound, in the experiment on blood pressure, the ED (50 mmHg) is above 0.0101 mg/kg. Moreover, the “Activity value, Test E: Effects on Blood Pressure in Hypertensive Rat (blood pressure decrease)” value (shortened to “Activity value … (blood pressure decrease)”) in experiment [1] came to 0. In addition, in the experiment on rat uterus, the EC50 is above 10 µg/mL.
On the same counts, the results for `CCC1CC([C@@H](O)/C=C/[C@H]2[C@H](O)CC(=O)[C@@H]2CCCCCCC(=O)OC)C1` (stereo partly drawn) [TR-4248, Methyl 11α,15R-dihydroxy-16,18-methano-9-oxoprost-13E-en-1-oate] are 2 (0.11-1.0), 0.00011 to 0.001 mg/kg, 1 and 0.101 to 1 µg/mL (≈ 0.265 to 2.63 µM).
With `CCC1CC([C@H](O)/C=C/[C@H]2[C@H](O)CC(=O)[C@@H]2CCCCCCC(=O)OC)C1` (stereo partly drawn) [TR-4249, Methyl 11α,15S-dihydroxy-16,18-methano-9-oxoprost-13E-en-1-oate], in the experiment with femoral blood flow, the “Activity value, Test C: Increase” value is 0 (>10.0). Moreover, in the experiment with blood pressure, the ED (50 mmHg) is above 0.0101 mg/kg. Moreover, the “Activity value … (blood pressure decrease)” value in experiment [1] was 0. In addition, the EC50 with rat uterus was above 10 µg/mL.
Taken in the same sequence, the figures for `CCC1CC([C@@H](O)/C=C/[C@H]2C=CC(=O)[C@@H]2CCCCCCCOC(C)=O)C1` (stereo partly drawn) [TR-4568, 1-Acetoxy-15R-hydroxy-16,18-methanoprosta-10,13E-dien-9-one] were 0 (>10.0), above 0.0101 mg/kg, 0 and above 10 µg/mL.
Taken in the same sequence, the figures for `CCC1CC([C@@H](O)/C=C/[C@H]2[C@H](O)CC(=O)[C@@H]2CCCCCCCO)C1` (stereo partly drawn) [TR-4569, 16,18-Methano-1,11α,15R-trihydroxyprost-13E-en-9-one] were 0 (>10.0), above 0.0101 mg/kg, 0 and above 10 µg/mL.
On the same counts, the results for `CCC1CC([C@H](O)/C=C/[C@H]2[C@H](O)CC(=O)[C@@H]2CCCCCCCO)C1` (stereo partly drawn) [TR-4570, 16,18-Methano-1,11α,15S-trihydroxyprost-13E-en-9-one] are 0 (>10.0), above 0.0101 mg/kg, 0 and 0.101 to 1 µg/mL (≈ 0.287 to 2.84 µM).
With `CCCCC1([C@H](O)/C=C/[C@H]2[C@H](O)CC(=O)[C@@H]2CCCCCCCO)CCC1` [TR-4645, 16,16-Propano-1,11α,15R-trihydroxyprost-13E-en-9-one], in the experiment on femoral blood flow, the “Activity value, Test C: Increase” value is listed as 1 (1.0.-10.0). The ED (50 mmHg) in the experiment with blood pressure is above 0.0101 mg/kg. In experiment [1], the “Activity value … (blood pressure decrease)” value was 0. Also, the EC50 in the experiment with rat uterus was above 10 µg/mL.
Taken in the same sequence, the figures for `CCCCC1([C@@H](O)/C=C/[C@H]2[C@H](O)CC(=O)[C@@H]2CCCCCCCO)CCC1` [TR-4646, 16,16-Propano-1,11α,15S-trihydroxyprost-13E-en-9-one] were 0 (>10.0), above 0.0101 mg/kg, 0 and above 10 µg/mL.
On the same counts, the results for `CC1([C@H](O)/C=C/[C@H]2[C@H](O)CC(=O)[C@@H]2CCCCCCCO)CCC1` [TR-4673, 16,19-Cyclo-16-methyl-20-nor-1,11α,15R-trihydroxyprost-13E-en-9-one] are 0 (>10.0), above 0.0101 mg/kg, 1 and above 10 µg/mL.
